# In article PMC3437627 (Bioorganic & medicinal chemistry letters, 2008):
# Legend:
# [1] = tested on: nicotine self-administration; details: rats; cited from earlier work
# α7* nAChRs [2] = molecular target: T1, α7* nAChRs (Rattus norvegicus, UniProt Q05941); details: rat brain membranes; cited from earlier work
# [3] = in vivo; cited from earlier work
# α4β2* nAChRs = α4β2* nAChRs (Rattus norvegicus, UniProt P09483+P12390); details: rat brain membranes; cited from earlier work
# α7* nAChRs [4] = molecular target: T1, α7* nAChRs; experiment: [3H]methyllycaconitine; assay type: binding; details: 100 nM
# T1 sequence (Q05941 23-502): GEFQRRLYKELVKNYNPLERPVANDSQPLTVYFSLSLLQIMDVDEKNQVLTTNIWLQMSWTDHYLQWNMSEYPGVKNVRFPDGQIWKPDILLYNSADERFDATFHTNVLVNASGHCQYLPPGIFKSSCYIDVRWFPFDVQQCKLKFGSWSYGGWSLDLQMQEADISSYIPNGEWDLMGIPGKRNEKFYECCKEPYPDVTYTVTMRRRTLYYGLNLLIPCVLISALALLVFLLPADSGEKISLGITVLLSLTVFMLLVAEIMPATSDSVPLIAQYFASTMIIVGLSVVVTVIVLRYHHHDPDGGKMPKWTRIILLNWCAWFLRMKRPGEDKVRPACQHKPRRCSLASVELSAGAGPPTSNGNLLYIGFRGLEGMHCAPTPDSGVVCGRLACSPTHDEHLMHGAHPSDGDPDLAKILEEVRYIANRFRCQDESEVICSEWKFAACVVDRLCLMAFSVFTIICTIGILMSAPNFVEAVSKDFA
# α4β2* nAChRs, sequence (P09483 31-630): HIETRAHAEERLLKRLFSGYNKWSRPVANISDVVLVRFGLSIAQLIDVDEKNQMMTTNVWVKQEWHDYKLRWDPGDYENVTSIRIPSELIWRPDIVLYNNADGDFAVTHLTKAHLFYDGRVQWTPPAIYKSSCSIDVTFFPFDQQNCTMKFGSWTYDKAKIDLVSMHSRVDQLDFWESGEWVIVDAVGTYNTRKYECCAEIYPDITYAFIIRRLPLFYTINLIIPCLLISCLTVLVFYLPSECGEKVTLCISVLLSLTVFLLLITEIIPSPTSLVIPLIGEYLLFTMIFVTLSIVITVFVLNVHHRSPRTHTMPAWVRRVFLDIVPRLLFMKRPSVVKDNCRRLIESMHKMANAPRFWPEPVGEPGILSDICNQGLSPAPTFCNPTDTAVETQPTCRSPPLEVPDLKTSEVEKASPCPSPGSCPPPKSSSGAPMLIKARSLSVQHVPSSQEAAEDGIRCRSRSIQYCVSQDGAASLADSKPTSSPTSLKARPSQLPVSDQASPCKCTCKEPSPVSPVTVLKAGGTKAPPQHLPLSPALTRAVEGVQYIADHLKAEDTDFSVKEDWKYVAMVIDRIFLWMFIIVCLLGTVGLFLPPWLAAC
# α4β2* nAChRs, sequence (P12390 25-500): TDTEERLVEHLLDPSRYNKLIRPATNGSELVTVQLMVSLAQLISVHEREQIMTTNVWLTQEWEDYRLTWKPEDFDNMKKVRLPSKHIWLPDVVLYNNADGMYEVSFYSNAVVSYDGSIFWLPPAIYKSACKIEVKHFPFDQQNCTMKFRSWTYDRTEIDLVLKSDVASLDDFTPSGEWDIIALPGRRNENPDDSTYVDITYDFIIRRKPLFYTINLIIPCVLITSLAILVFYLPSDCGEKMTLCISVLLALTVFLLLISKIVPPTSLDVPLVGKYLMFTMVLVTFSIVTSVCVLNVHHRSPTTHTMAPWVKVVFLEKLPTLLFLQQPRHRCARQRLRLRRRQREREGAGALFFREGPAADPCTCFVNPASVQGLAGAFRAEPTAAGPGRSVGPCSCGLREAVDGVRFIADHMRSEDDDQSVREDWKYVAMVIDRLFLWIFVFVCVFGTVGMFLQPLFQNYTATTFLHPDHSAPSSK
Compound,effect on nicotine self-administration [1],affinity for α7* nAChR binding site (α7* nAChRs [2]),brain bioavailability [3],affinity for α4β2* nAChR binding site (α4β2* nAChRs),inhibition in the MLA assay (α7* nAChRs [4])
"Cc1ccc[n+](CCCCCCCCCCCC[n+]2cccc(C)c2)c1.[Br-].[Br-] [Compound 2, N,N’-dodecane-1,12-diyl-bis-3-picolinium dibromide]",decrease nicotine self-administration,no affinity,brain bio-available,no affinity,–
C(#Cc1cc(C#CCCC[n+]2cccc(Cc3ccccc3)c2)c(C#CCCC[n+]2cccc(Cc3ccccc3)c2)cc1C#CCCC[n+]1cccc(Cc2ccccc2)c1)CCC[n+]1cccc(Cc2ccccc2)c1.[Br-].[Br-].[Br-].[Br-] [Compound 8f],–,–,–,–,significant inhibition
C(#Cc1cc(C#CCCC[n+]2cccc(-c3ccccc3)c2)c(C#CCCC[n+]2cccc(-c3ccccc3)c2)cc1C#CCCC[n+]1cccc(-c2ccccc2)c1)CCC[n+]1cccc(-c2ccccc2)c1.[Br-].[Br-].[Br-].[Br-] [Compound 8i],–,–,–,–,significant inhibition
